Source: ChEMBL document CHEMBL3124847, “Membrane damaging activity of a maslinic acid analog” (Eur J Med Chem, 2014)
Values after ≈ are worked out from the molar mass of the structure shown. Active and inactive are the calls of the source. The calls are words filed in the database; no cut-off is given here.

Assays:
[1] = tested on: NIH3T3; experiment: Cytotoxicity against mouse NIH/3T3 cells after 96 hrs by SRB assay; assay type: cell-based; details: NIH3T3, 96 h
[2] = tested on: A2780; experiment: Cell cycle arrest in human A2780 cells assessed as early detachment of cells at 24 to 60 uM after 24 hrs by annexin V/propidium iodide staining-based FACS analysis; assay type: functional
[3] = tested on: A2780; experiment: Induction of apoptosis in human A2780 cells assessed as chromatin condensation at 24 to 60 uM after 24 hrs by acridine orange/propidium iodide staining-based fluorescence microscopy; assay type: functional, cell-based
[4] = tested on: A2780; experiment: Induction of apoptosis in human A2780 cells assessed as cell shrinkage at 24 to 60 uM after 24 hrs by acridine orange/propidium iodide staining-based fluorescence microscopy; assay type: functional
[5] = Solubility of the compound in buffer at 10 uM after 90 mins by HPLC analysis; assay type: physicochemical
[6] = tested on: A2780; experiment: Induction of apoptosis in human A2780 cells assessed as cholesterol crystal formation at 24 to 60 uM by acridine orange/propidium iodide staining-based fluorescence microscopy; assay type: functional, cell-based; details: TDE = time-dependent effect
[7] = tested on: A2780; experiment: Induction of apoptosis in human A2780 cells assessed as cholesterol crystal formation after 24 hrs by acridine orange/propidium iodide staining-based fluorescence microscopy; assay type: functional, cell-based
[8] = tested on: MCF7; experiment: Cytotoxicity against human MCF7 cells after 96 hrs by SRB assay; assay type: functional, cell-based; details: MCF7, 96 h
[9] = tested on: A549; experiment: Cytotoxicity against human A549 cells after 96 hrs by SRB assay; assay type: functional, cell-based; details: A549, 96 h
[10] = tested on: HT-29; experiment: Cytotoxicity against human HT-29 cells after 96 hrs by SRB assay; assay type: functional, cell-based; details: HT-29, 96 h
[11] = tested on: A2780; experiment: Cytotoxicity against human A2780 cells after 96 hrs by SRB assay; assay type: functional, cell-based; details: A2780, 96 h
[12] = tested on: 8505C; experiment: Cytotoxicity against human 8505C cells after 96 hrs by SRB assay; assay type: functional, cell-based
[13] = Cytotoxicity against human 518A2 cells after 96 hrs by SRB assay; assay type: functional, cell-based; details: 518A2, 96 h
[14] = tested on: A2780; experiment: Induction of apoptosis in human A2780 cells assessed as phosphatidylserine externalization at 60 uM after 6 hrs by annexin V/propidium iodide staining-based FACS analysis; assay type: functional
[15] = tested on: A2780; experiment: Induction of apoptosis in human A2780 cells assessed as caspase 8 activity at 60 uM after 24 hrs relative to control; assay type: functional
[16] = tested on: A2780; experiment: Induction of apoptosis in human A2780 cells assessed as caspase 9 activity at 60 uM after 24 hrs relative to control; assay type: functional
[17] = tested on: A2780; experiment: Induction of apoptosis in human A2780 cells assessed as caspase 3 activity at 60 uM after 24 hrs relative to control; assay type: functional
[18] = tested on: A2780; experiment: Induction of apoptosis in human A2780 cells assessed as caspase 9 activity at 24 uM after 24 hrs relative to control; assay type: functional
[19] = tested on: A2780; experiment: Induction of apoptosis in human A2780 cells assessed as caspase 8 activity at 24 uM after 24 hrs relative to control; assay type: functional
[20] = tested on: A2780; experiment: Induction of apoptosis in human A2780 cells assessed as caspase 3 activity at 24 uM after 24 hrs relative to control; assay type: functional
[21] = tested on: A2780; experiment: Induction of apoptosis in human A2780 cells assessed as caspase 9 activity at 60 uM after 12 hrs relative to control; assay type: functional
[22] = tested on: A2780; experiment: Induction of apoptosis in human A2780 cells assessed as caspase 3 activity at 60 uM after 12 hrs relative to control; assay type: functional
[23] = tested on: A2780; experiment: Induction of apoptosis in human A2780 cells assessed as caspase 8 activity at 60 uM after 12 hrs relative to control; assay type: functional
[24] = tested on: A2780; experiment: Induction of apoptosis in human A2780 cells assessed as caspase 9 activity at 24 uM after 12 hrs relative to control; assay type: functional
[25] = tested on: A2780; experiment: Induction of apoptosis in human A2780 cells assessed as caspase 8 activity at 24 uM after 12 hrs relative to control; assay type: functional
[26] = tested on: A2780; experiment: Induction of apoptosis in human A2780 cells assessed as caspase 3 activity at 24 uM after 12 hrs relative to control; assay type: functional
[27] = tested on: A2780; experiment: Induction of apoptosis in human A2780 cells assessed as caspase 9 activity at 60 uM after 6 hrs relative to control; assay type: functional
[28] = tested on: A2780; experiment: Induction of apoptosis in human A2780 cells assessed as caspase 8 activity at 60 uM after 6 hrs relative to control; assay type: functional
[29] = tested on: A2780; experiment: Induction of apoptosis in human A2780 cells assessed as caspase 9 activity at 24 uM after 6 hrs relative to control; assay type: functional
[30] = tested on: A2780; experiment: Induction of apoptosis in human A2780 cells assessed as caspase 3 activity at 60 uM after 6 hrs relative to control; assay type: functional
[31] = tested on: A2780; experiment: Induction of apoptosis in human A2780 cells assessed as caspase 8 activity at 24 uM after 6 hrs relative to control; assay type: functional
[32] = tested on: A2780; experiment: Induction of apoptosis in human A2780 cells assessed as caspase 3 activity at 24 uM after 6 hrs relative to control; assay type: functional
[33] = tested on: A2780; experiment: Induction of apoptosis in human A2780 cells assessed as DNA fragmentation at 0.024 to 0.060 mM after 6 to 24 hrs by agarose gel electrophoresis; assay type: functional, cell-based
[34] = tested on: A2780; experiment: Induction of apoptosis in human A2780 cells assessed as secondary necrotic cells at 24 to 60 uM after 6 to 24 hrs by annexin V/propidium iodide staining-based FACS analysis; assay type: functional, cell-based
[35] = tested on: A2780; experiment: Induction of apoptosis in human A2780 cells at 2 to 6 times IC50 after 6 to 24 hrs by acridine orange/propidium iodide staining-based fluorescence microscopy; assay type: functional, cell-based
[36] = tested on: A2780; experiment: Cell cycle arrest in human A2780 cells assessed as accumulation at S phase at 24 uM after 6 hrs by annexin V/propidium iodide staining-based FACS analysis; assay type: functional
[37] = tested on: A2780; experiment: Cell cycle arrest in human A2780 cells assessed as accumulation at G1/G0 phase at 12 uM after 12 hrs by annexin V/propidium iodide staining-based FACS analysis; assay type: functional
[38] = tested on: A2780; experiment: Induction of apoptosis in human A2780 cells assessed as chromatin condensation at 1 uM after 24 hrs by acridine orange/propidium iodide staining-based fluorescence microscopy; assay type: functional, cell-based
[39] = tested on: A2780; experiment: Induction of apoptosis in human A2780 cells assessed as cell shrinkage at 1 uM after 24 hrs by acridine orange/propidium iodide staining-based fluorescence microscopy; assay type: functional
[40] = tested on: A2780; experiment: Induction of apoptosis in human A2780 cells assessed as cholesterol crystal formation at 1 uM by acridine orange/propidium iodide staining-based fluorescence microscopy; assay type: functional, cell-based; details: TDE = time-dependent effect
[41] = tested on: A2780; experiment: Induction of apoptosis in human A2780 cells assessed as caspase 9 activity at 1 uM after 24 hrs relative to control; assay type: functional
[42] = tested on: A2780; experiment: Induction of apoptosis in human A2780 cells assessed as caspase 8 activity at 1 uM after 24 hrs relative to control; assay type: functional
[43] = tested on: A2780; experiment: Induction of apoptosis in human A2780 cells assessed as caspase 3 activity at 1 uM after 24 hrs relative to control; assay type: functional
[44] = tested on: A2780; experiment: Induction of apoptosis in human A2780 cells assessed as caspase 8 activity at 1 uM after 12 hrs relative to control; assay type: functional
[45] = tested on: A2780; experiment: Induction of apoptosis in human A2780 cells assessed as caspase 9 activity at 1 uM after 12 hrs relative to control; assay type: functional
[46] = tested on: A2780; experiment: Induction of apoptosis in human A2780 cells assessed as caspase 3 activity at 1 uM after 12 hrs relative to control; assay type: functional
[47] = tested on: A2780; experiment: Induction of apoptosis in human A2780 cells assessed as caspase 9 activity at 1 uM after 6 hrs relative to control; assay type: functional
[48] = tested on: A2780; experiment: Induction of apoptosis in human A2780 cells assessed as caspase 8 activity at 1 uM after 6 hrs relative to control; assay type: functional
[49] = tested on: A2780; experiment: Induction of apoptosis in human A2780 cells assessed as caspase 3 activity at 1 uM after 6 hrs relative to control; assay type: functional

Question: Which IC50 [1] does the source give for `CC1(C)CC[C@]2(C(=O)O)CC[C@]3(C)C(=CC[C@@H]4[C@@]5(C)C[C@@H](O)[C@H](O)C(C)(C)[C@@H]5CC[C@]43C)[C@@H]2C1` [MASLINIC ACID] here?
Answer: The IC50 was 21.1 µM.

Question: For `CC1(C)CC[C@]2(C(=O)OCCCOc3ccccc3)CC[C@]3(C)C(=CC[C@@H]4[C@@]5(C)C[C@@H](O)[C@H](O)C(C)(C)[C@@H]5CC[C@]43C)[C@@H]2C1`, which Activity [2] is on record?
Answer: Its Activity is “Active”.

Question: And the Activity [3]?
Answer: Its Activity is “Active”.

Question: What about the Activity [4] of the same molecule?
Answer: Its Activity is “Active”.

Question: And the solubility at 1.5 h, 10 µM [5]?
Answer: The solubility at 1.5 h, 10 µM was 110 µM (≈ 66.5 µg/mL).

Question: What about the Activity [6] of the same molecule?
Answer: The Activity was “tde”.

Question: What about the Activity [7] of the same molecule?
Answer: The Activity was “Dose-dependent effect”.

Question: And the IC50 [1]?
Answer: The IC50 was 12.7 µM.

Question: What about the IC50 [8] of the same molecule?
Answer: Its IC50 is 13.6 µM.

Question: What about the IC50 [9] of the same molecule?
Answer: Its IC50 is 13.7 µM.

Question: And the IC50 [10]?
Answer: Its IC50 is 12.5 µM.

Question: What about the IC50 [11] of the same molecule?
Answer: The IC50 was 10.6 µM.

Question: What about the IC50 [12] of the same molecule?
Answer: Its IC50 is 13.3 µM.

Question: And the IC50 [13]?
Answer: The IC50 was 12.6 µM.

Question: What about the Activity [14] of the same molecule?
Answer: Its Activity is 80%.

Question: And the Activity [15]?
Answer: Its Activity is 39%.

Question: What about the Activity [16] of the same molecule?
Answer: Its Activity is 21%.

Question: And the Activity [17]?
Answer: Its Activity is 31%.

Question: What about the Activity [18] of the same molecule?
Answer: Its Activity is 6%.

Question: What about the Activity [19] of the same molecule?
Answer: Its Activity is 27%.

Question: What about the Activity [20] of the same molecule?
Answer: Its Activity is 25%.

Question: What about the Activity [21] of the same molecule?
Answer: Its Activity is 2%.

Question: And the Activity [22]?
Answer: The Activity was 37%.

Question: What about the Activity [23] of the same molecule?
Answer: Its Activity is 44%.

Question: And the Activity [24]?
Answer: The Activity was -2%.

Question: And the Activity [25]?
Answer: Its Activity is 1%.

Question: What about the Activity [26] of the same molecule?
Answer: The Activity was 1%.

Question: What about the Activity [27] of the same molecule?
Answer: Its Activity is 3%.

Question: And the Activity [28]?
Answer: Its Activity is 25%.

Question: What about the Activity [29] of the same molecule?
Answer: The Activity was 0%.

Question: And the Activity [30]?
Answer: Its Activity is 29%.

Question: And the Activity [31]?
Answer: The Activity was 2%.

Question: And the Activity [32]?
Answer: Its Activity is 2%.

Question: What about the Activity [33] of the same molecule?
Answer: Its Activity is “Active”.

Question: And the Activity [34]?
Answer: Its Activity is “Active”.

Question: What about the Activity [35] of the same molecule?
Answer: The Activity was “Active”.

Question: And the Activity [36]?
Answer: The Activity was “Active”.

Question: What about the Activity [37] of the same molecule?
Answer: Its Activity is “Active”.

Question: Which Activity [38] does the source give for `CN[C@@H]1C[C@H]2O[C@@](C)([C@@H]1OC)n1c3ccccc3c3c4c(c5c6ccccc6n2c5c31)C(=O)NC4` [STAUROSPORINE] here?
Answer: The Activity was “Active”.

Question: What about the Activity [39] of the same molecule?
Answer: Its Activity is “Active”.

Question: And the Activity [40]?
Answer: The Activity was “tde”.

Question: What about the Activity [7] of the same molecule?
Answer: The Activity was “Dose-dependent effect”.

Question: What about the Activity [41] of the same molecule?
Answer: The Activity was 33%.

Question: And the Activity [42]?
Answer: The Activity was 79%.

Question: And the Activity [43]?
Answer: The Activity was 57%.

Question: And the Activity [44]?
Answer: Its Activity is 52%.

Question: What about the Activity [45] of the same molecule?
Answer: The Activity was 3%.

Question: What about the Activity [46] of the same molecule?
Answer: The Activity was 52%.

Question: And the Activity [47]?
Answer: Its Activity is 38%.

Question: What about the Activity [48] of the same molecule?
Answer: The Activity was 51%.

Question: What about the Activity [49] of the same molecule?
Answer: Its Activity is 68%.
